Peptide text beside a SMILES is read from it. * marks the point of attachment. Cbz = O=C(OCc1ccccc1)*; CH2F = FC*
What was measured:
MCL-1 = assay: Western blot of MCL-1 in AML cell lines; assay type: cell-based; details: MV4-11; 20 μM Z-VAD-FMK for 1 hour before 5-azacytidine for another 16 hours
Description: Lysates were quantified using a bicinchoninic acid (BCA) kit (Piece/Thermo Fisher, Waltham, MA). 20 to 30 μg protein was resolved on a 4-12% SDS-PAGE gel, transferred to PVDF membranes (80V/90 minute by wet-transfer), and blocked with Oddysey TBS blocking buffer for 1 hour and then probed with appropriate primary antibodies overnight at 4° C. using dilution as recommended by manufacturer. Membranes were washed three times for a total of 30 minutes and then incubated with secondary antibodies at room temperature in the dark for 1 hour. After another three washes, Odyssey infrared imaging system and companion software (LI-COR biosciences, Lincoln, NE, USA) were used to scan immunoblot membranes and to quantify band intensity according to the manufacturer's instructions. The ratio of proteins of interest to loading control in treated samples was normalized to the corresponding ratio in untreated cells. Antibodies used for immunoblotting were purchased from the following sources: BCL-2 (sc-7382), MCL1- (sc-819) from Santa Cruz Biotechnology (Dallas, TX, USA, Bim (2819), caspase-3 (9664) from Cell Signaling Technology; beta-Actin (A2228) from Sigma-Aldrich; DNMTI (ab188453) from AbCam; TRDye 680 goat anti-rabbit and IRDye 800 goat anti-mouse secondary antibodies (#925-68073 and #925-32212) were purchased from Li-COR Biosciences (Lincoln, NE).

MOLM-13 xenograft model = assay: Disseminated MOLM-13 xenograft survival study; assay type: in vivo, mice; details: MOLM-13, NOD/SCID mice; single agent PO qd×21: midostaurin 100 mg/kg, gilteritinib 4 mg/kg, venetoclax 100 mg/kg; vehicle=19 days
Description: (§1) LEED models oral administration of AZA, while HELD models intravenous or subcutaneous administration of AZA.
The animals were fed ad libitum water (reverse osmosis, 1 ppm Cl), and NIH 31 Modified and Irradiated Lab Diet® consisting of 18.0% crude protein, 5.0% crude fat, and 5.0% crude fiber. The mice were housed on irradiated Enrich-o'cobs™ Laboratory Animal Bedding in static microisolators on a 12-hour light cycle at 20-22° C. (68-72° F.) and 40-60% humidity.
(§2) On each day of dosing, an appropriate amount of gilteritinib was dissolved in 0.5% methylcellulose in DI water to yield a dosing solution at 0.4 mg/mL. Each week, an appropriate amount of venetoclax was dissolved in 10% ethanol:30% PEG400:60% phosal 50 propylene glycol to yield a dosing solution at 10 mg/mL. […] Each test mouse received 5×10^6 MOLM-13 cells or 10^7 MV4-11 cells (0.2 mL cell suspension) by tail vein injection. Dosing was initiated three days after tumor cell inoculation, which was designated as Day 1 of the study. NOD/SCID mice (n=9-12/group) were randomized according to body weight and dosed. […] Vehicle was administered both IP and PO. The dosing volume for all treatments was 10 mL/kg, scaled to the weight of each individual animal.
(§3) Animals were monitored individually for an endpoint of moribundity due to progression of the leukemia. Full hind limb paralysis, severe ocular proptosis, or moribundity was considered sufficient for euthanasia due to tumor progression. Moribund animals were defined as sick animals unable to reach food and water. These deaths were classified as death on survival study. The time to endpoint (TTE), in days, was recorded for each mouse that died of its disease or was euthanized due to extensive tumor progression. […] An animal classified as having died from treatment-related (TR) causes was assigned a TTE value equal to the day of death. An animal classified as having died from non-treatment-related (NTR) causes, or used for sampling before endpoint, was excluded from TTE calculations and all further analyses. The median TTE value was calculated for each group. The median TTE of treated mice was expressed as a percentage of the median TTE of the control mice (% T/C), and the increase in life span (ILS) was calculated as: ILS=% T/C−100%, where T=median TTE treated, and C=median TTE control. Thus, if T=C, ILS=0%.
Animals were weighed daily on Days 1-5, then twice per week until the completion of the study. […] Individual body weight loss was monitored as per protocol and any animal that exceeded the limits for acceptable body weight loss was euthanized. Group mean body weight loss also was monitored as per protocol. Dosing was suspended in any group that exceeded the limits for acceptable mean body weight loss. If mean body weight recovered, then dosing may be resumed in that group, but at a lower dosage or less frequent dosing schedule. Acceptable toxicity for the maximum tolerated dose was defined as a group mean body-weight loss of less than 20% during the study and not more than one TR death among ten treated animals. […] A death was classified as NTR if there was no evidence that death was related to treatment side effects or tumor progression. Non-treatment-related deaths may be further characterized based on cause of death. A death may be classified as NTRa if it resulted from an accident or human error. A death may be classified as NTRu if the cause of death is unknown and there is no available evidence of death related to treatment side effects, metastasis, accident or human error, although death due to these etiologies cannot be excluded. Survival was analyzed by the Kaplan-Meier method, based on TTE values. The logrank (Mantel-Cox) and Gehan-Breslow-Wilcoxon tests determined the significance of the difference between the overall survival experiences (survival curves) of two groups, based on TTE values.
These experiments were repeated with a second FLT3-ITD cell line, MOLM-13.

MV4-11 xenograft models = assay: Disseminated MV4-11 xenograft survival study; assay type: in vivo; details: MV4-11, NCG mice; single agent PO qd×21: venetoclax 100 mg/kg, midostaurin 100 mg/kg; vehicle=29.5
Description: as §1
as §2, with “NOD/SCID mice (n=9-12/group) were randomized according to body weight and dosed.” left out
as §3
Animals were weighed daily on Days 1-5, then twice per week until the completion of the study. […] Individual body weight loss was monitored as per protocol and any animal that exceeded the limits for acceptable body weight loss was euthanized. Group mean body weight loss also was monitored as per protocol. Dosing was suspended in any group that exceeded the limits for acceptable mean body weight loss. If mean body weight recovered, then dosing may be resumed in that group, but at a lower dosage or less frequent dosing schedule. […] Survival was analyzed by the Kaplan-Meier method, based on TTE values. The logrank (Mantel-Cox) and Gehan-Breslow-Wilcoxon tests determined the significance of the difference between the overall survival experiences (survival curves) of two groups, based on TTE values.

BaF-FLT3(WT) = assay: Cell viability assay (Cell Titer-Glo), BaF3 cells expressing FLT3; assay type: cell-based; details: Mus musculus
BaF-FLT3-ITD = assay: as above; assay type: cell-based; details: Mus musculus
BaF-FLT3(D835Y) = assay: as above; assay type: cell-based; details: Mus musculus
[1] = tested on: engineered BaF3 cell lines expressing either wild-type FLT3, FLT3-ITD or FLT3 (D835Y); assay: Cell viability and synergy, panel of engineered BaF3 cell lines; assay type: cell-based; details: Mus musculus, FIG. 10A, read-out: EC50 (resistant to venetoclax)
[2] = tested on: CD11b, CD14, and CD86 surface marker expression; assay: Flow cytometry of differentiation markers in AML cell lines; assay type: cell-based
Description: FACS samples were acquired using BD FACSCanto II. Cell viability was also examined by FACS analysis with Fixable Viability dye 780 (Thermofisher Scientific, Waltham, MA) according to the manufacturer's instructions. Briefly, 10^5 cells were seeded in U bottom 96 well plate, next day treated with 9 doses of CC-90011 (started from 10 uM, 3-fold dilution down), cells were incubated at 37° C. for 6 days and harvested for staining. Cells were washed once with DPBS and stained with 1×FVS780 and washed twice with staining buffer. The samples were stained with 1:200 dilution surface antibodies. Results were then analyzed with FlowJo V10 software (TreeStar Inc., Ashland, OR).

22 AML cell lines = assay: Cell viability assay, single agents and 5-azacytidine-venetoclax combination, AML cell line panel; details: number of 22 AML cell lines

Row | SMILES | Median survival (MOLM-13 xenograft model) [days] | Median survival (MV4-11 xenograft models) | EC50 (BaF-FLT3(WT)) [nM] | EC50 (BaF-FLT3-ITD) [nM] | EC50 (BaF-FLT3(D835Y)) [nM] | also measured
1 | COC(=O)C[C@H](NC(=O)[C@H](C)NC(=O)[C@@H](NC(=O)OCc1ccccc1)C(C)C)C(=O)CF [Z-VAD-FMK] (Cbz-Val-Ala-Asp(OMe)-CH2F) | – | – | – | – | – | effect on MCL-1 degradation by 5-azacytidine (MCL-1): partially ablated
2 | CO[C@@H]1[C@H](N(C)C(=O)c2ccccc2)C[C@H]2O[C@]1(C)n1c3ccccc3c3c4c(c5c6ccccc6n2c5c31)C(=O)NC4 [Midostaurin] | 34 | 57 | – | – | – | –
3 | CC1(C)CCC(CN2CCN(c3ccc(C(=O)NS(=O)(=O)c4ccc(NCC5CCOCC5)c([N+](=O)[O-])c4)c(Oc4cnc5[nH]ccc5c4)c3)CC2)=C(c2ccc(Cl)cc2)C1 [Venetoclax] | 29 | 35.5 | > 10000 | > 10000 | 4330 | EC50 [1]: > 1000 nM
4 | CCc1nc(C(N)=O)c(Nc2ccc(N3CCC(N4CCN(C)CC4)CC3)c(OC)c2)nc1NC1CCOCC1 [Gilteritinib] | 34 | – | 4 | 1.8 | 1.8 | –
5 | COc1ccc(-c2c(-c3ccc(C#N)c(F)c3)nc(N3CCC(N)CC3)n(C)c2=O)cc1F [CC-90011, 4-[2-(4-amino-piperidin-1-yl)-5-(3-fluoro-4-methoxy-phenyl)-1-methyl-6-oxo-1,6-dihydro-pyrimidin-4-yl]-2-fluoro-benzonitrile] | – | – | – | – | – | change in differentiation markers ([2]; five cell lines: HEL, KG-1, MOLM-13, KG-1a, and NOMO-1): no changes in any of these differentiation markers; cell lines with increased expression of at least one differentiation marker ([2]; number of 22 AML cell lines following CC-90011 treatment): Seventeen; cell lines sensitive to CC-90011 (single agent cytotoxicity) (22 AML cell lines): Eleven

Reference: patent US12447171B2 (CELGENE QUANTICEL RESEARCH, INC., priority 2019, dated 2025)
